Numbers after ± are expanded uncertainties.
Conditions: Liquid, Closed cell (Static) method

Cc1ccccc1C [1,2-dimethylbenzene]
Conditions | vapor or sublimation pressure [kPa]
313.15 K | 2.052 ± 0.035
323.15 K | 3.456 ± 0.022
333.15 K | 5.613 ± 0.047
343.15 K | 8.542 ± 0.051
353.15 K | 12.73 ± 0.04
363.15 K | 18.65 ± 0.057
373.15 K | 26.73 ± 0.076
378.15 K | 31.66 ± 0.091
383.15 K | 37.35 ± 0.1
388.15 K | 43.63 ± 0.12
393.15 K | 51.01 ± 0.14
403.15 K | 68.42 ± 0.18
413.15 K | 90.18 ± 0.24

Cc1ccc(C)cc1 [1,4-dimethylbenzene]
Conditions | vapor or sublimation pressure [kPa]
303.15 K | 1.562 ± 0.031
313.15 K | 2.49 ± 0.039
323.15 K | 4.422 ± 0.042
333.15 K | 6.997 ± 0.048
343.15 K | 10.63 ± 0.057
353.15 K | 15.72 ± 0.085
358.15 K | 19.04 ± 0.085
363.15 K | 22.8 ± 0.091
373.15 K | 32.04 ± 0.12
383.15 K | 44.56 ± 0.16
393.15 K | 60.79 ± 0.22
403.15 K | 80.87 ± 0.28
408.15 K | 92.43 ± 0.32

Cc1cccc(C)c1 [1,3-dimethylbenzene]
Conditions | vapor or sublimation pressure [kPa]
308.15 K | 2.631 ± 0.045
313.15 K | 3.524 ± 0.028
318.15 K | 4.372 ± 0.036
323.15 K | 5.37 ± 0.045
328.15 K | 6.496 ± 0.037
333.15 K | 7.75 ± 0.038
338.15 K | 9.305 ± 0.035
343.15 K | 11.12 ± 0.036
353.15 K | 15.97 ± 0.048
363.15 K | 22.76 ± 0.058
373.15 K | 32.06 ± 0.079
383.15 K | 44.23 ± 0.11
403.15 K | 80.2 ± 0.16

CCc1ccccc1 [ethylbenzene]
Conditions | vapor or sublimation pressure [kPa]
308.15 K | 2.223 ± 0.019
318.15 K | 3.746 ± 0.041
323.15 K | 4.712 ± 0.029
328.15 K | 5.967 ± 0.03
333.15 K | 7.448 ± 0.031
338.15 K | 9.251 ± 0.028
343.15 K | 11.41 ± 0.032
348.15 K | 13.79 ± 0.04
358.15 K | 20.42 ± 0.06
368.15 K | 29.11 ± 0.073
383.15 K | 47.75 ± 0.1
403.15 K | 85.64 ± 0.17

c1ccccc1 [benzene]
Conditions | vapor or sublimation pressure [kPa]
293.15 K | 9.983 ± 0.027
298.15 K | 12.64 ± 0.037
303.15 K | 15.85 ± 0.035
308.15 K | 19.71 ± 0.05
313.15 K | 24.3 ± 0.052
318.15 K | 29.73 ± 0.063
323.15 K | 36.09 ± 0.069
328.15 K | 43.51 ± 0.082
333.15 K | 52.11 ± 0.11
338.15 K | 62.01 ± 0.11
343.15 K | 73.35 ± 0.13
348.15 K | 86.27 ± 0.15
353.15 K | 100.91 ± 0.17

Cc1ccccc1 [toluene]
Conditions | vapor or sublimation pressure [kPa]
303.15 K | 4.905 ± 0.022
308.15 K | 6.257 ± 0.024
313.15 K | 7.963 ± 0.026
318.15 K | 9.959 ± 0.034
323.15 K | 12.31 ± 0.032
328.15 K | 15.14 ± 0.041
333.15 K | 18.86 ± 0.057
338.15 K | 22.61 ± 0.05
343.15 K | 27.31 ± 0.059
348.15 K | 32.72 ± 0.071
358.15 K | 46.17 ± 0.091
368.15 K | 63.84 ± 0.12
378.15 K | 86.25 ± 0.16
